Results reported in ChEMBL document CHEMBL1201862, “PubChem BioAssay data set” (2004).
The source made the active and inactive calls.

Experiments:
[1] = target: G-protein coupled receptor 55 (Homo sapiens, UniProt Q9Y2T6); assay: GPR55 antagonists blocking LPI-driven arrestin recruitment, primary screen, imaging, U2OS, beta-arrestin-GFP, LPI agonist (AID 2013); assay type: functional;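 note: antagonist potency measured as reduced agonist-driven arrestin aggregation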
[2] = target: Glyceraldehyde-3-phosphate dehydrogenase (Homo sapiens, UniProt P04406)
Sequence of Glyceraldehyde-3-phosphate dehydrogenase (P04406 whole entry): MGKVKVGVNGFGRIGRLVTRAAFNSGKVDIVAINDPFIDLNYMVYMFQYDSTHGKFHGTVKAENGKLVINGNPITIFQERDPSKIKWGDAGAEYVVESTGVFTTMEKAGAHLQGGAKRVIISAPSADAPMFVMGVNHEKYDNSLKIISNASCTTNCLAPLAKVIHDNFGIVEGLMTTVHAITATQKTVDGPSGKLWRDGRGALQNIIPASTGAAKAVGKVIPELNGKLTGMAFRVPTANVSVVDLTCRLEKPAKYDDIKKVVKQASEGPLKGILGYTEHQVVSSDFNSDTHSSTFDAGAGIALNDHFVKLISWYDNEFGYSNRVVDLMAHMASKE

[3] = target: T1, Alkaline phosphatase, tissue-nonspecific isozyme (Homo sapiens, UniProt P05186); assay: human TNAP enzyme inhibitors, SAR follow-up, biochemical, luminescent, dose response (AID 1056)
T1 sequence (P05186 whole entry): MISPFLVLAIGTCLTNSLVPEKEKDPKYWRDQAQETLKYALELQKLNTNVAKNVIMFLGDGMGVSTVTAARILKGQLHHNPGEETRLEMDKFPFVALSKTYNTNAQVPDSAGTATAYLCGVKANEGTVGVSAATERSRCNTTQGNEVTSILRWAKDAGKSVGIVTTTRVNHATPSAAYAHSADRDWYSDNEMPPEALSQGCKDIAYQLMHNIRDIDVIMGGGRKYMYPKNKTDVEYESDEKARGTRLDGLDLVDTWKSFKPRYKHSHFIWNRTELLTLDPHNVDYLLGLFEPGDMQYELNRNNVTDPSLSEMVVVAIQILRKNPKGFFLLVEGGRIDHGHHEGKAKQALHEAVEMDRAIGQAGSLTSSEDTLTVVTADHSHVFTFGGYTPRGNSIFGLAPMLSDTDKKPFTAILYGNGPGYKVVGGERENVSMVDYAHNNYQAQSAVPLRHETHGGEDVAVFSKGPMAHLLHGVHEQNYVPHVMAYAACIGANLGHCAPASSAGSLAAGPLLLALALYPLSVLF

[4] = inhibitors of intracellular T. cruzi replication, confirmation, NIH3T3 host cells, beta-gal luminescence (AID 2044); assay type: functional, cell-based;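 note: intracellular parasites grown in NIH/3T3 mouse fibroblasts as host cells; luminescent beta-galactosidase reporter signal from transgenic T. cruzi replicating inside host cells; inhibitors lower the luminescence signal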
[5] = cytotoxicity toward NIH3T3 fibroblasts, dose response, counter-screen, cell-based, ATP luminescence, mouse fibroblasts (AID 2010); assay type: functional;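 note: cells exposed to compound for about 90 hours before reading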
[6] = target: Glucose-6-phosphate 1-dehydrogenase (Homo sapiens, UniProt P11413); assay: human G6PD enzyme inhibitors, dose response, selectivity assay for P. falciparum G6PD inhibitor project, biochemical, fluorescence (AID 504792); assay type: functional
Cytochrome P450 2C19 = Cytochrome P450 2C19 (Homo sapiens, UniProt P33261); assay: Cytochrome panel assay with activity outcomes. Panel member name: p450-cyp2c19 Compounds with AC50 equal or less than 10 uM are considered active; assay type: functional; settings: read-out: AC50
[7] = target: T2, Delta-type opioid receptor (Homo sapiens, UniProt P41143); assay: HTS Image-Based Screen for Antagonists of the DOR Receptor. [Related pubchem assays (depositor defined):AID1777, AID1785, AID1786, AID2133]; assay type: functional
T2 sequence (P41143 whole entry): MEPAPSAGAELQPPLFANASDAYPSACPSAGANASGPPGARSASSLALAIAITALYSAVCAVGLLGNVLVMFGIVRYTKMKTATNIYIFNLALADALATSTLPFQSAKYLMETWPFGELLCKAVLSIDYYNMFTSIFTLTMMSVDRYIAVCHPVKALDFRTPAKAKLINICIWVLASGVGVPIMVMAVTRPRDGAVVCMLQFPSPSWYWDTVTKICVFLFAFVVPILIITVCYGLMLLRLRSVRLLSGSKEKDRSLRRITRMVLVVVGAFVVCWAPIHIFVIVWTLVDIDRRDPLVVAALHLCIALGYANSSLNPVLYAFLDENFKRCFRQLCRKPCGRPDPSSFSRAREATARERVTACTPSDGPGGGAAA

Mu-type opioid receptor = Mu-type opioid receptor (Homo sapiens, UniProt P35372); assay: HTS Image-Based Screen for Agonists of the MOR Receptor. [Related pubchem assays (depositor defined):AID1777, AID1785, AID1786, AID2133]; assay type: functional;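 note: imaging of beta-arrestin GFP recruitment into spots after receptor activation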
Sequence of Mu-type opioid receptor (P35372 whole entry): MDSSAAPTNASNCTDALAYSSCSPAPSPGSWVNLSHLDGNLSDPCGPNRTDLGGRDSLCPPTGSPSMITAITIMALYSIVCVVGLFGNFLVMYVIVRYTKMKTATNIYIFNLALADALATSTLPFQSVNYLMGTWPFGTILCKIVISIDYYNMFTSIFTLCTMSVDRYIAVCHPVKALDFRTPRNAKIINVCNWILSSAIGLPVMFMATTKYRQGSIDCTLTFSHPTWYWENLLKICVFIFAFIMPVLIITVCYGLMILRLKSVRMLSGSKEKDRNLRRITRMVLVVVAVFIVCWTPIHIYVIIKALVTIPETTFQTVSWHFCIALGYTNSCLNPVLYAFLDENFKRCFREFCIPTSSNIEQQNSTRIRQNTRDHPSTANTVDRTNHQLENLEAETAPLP

[8] = target: T2, Delta-type opioid receptor; assay: HTS Image-Based Screen for Agonists of the DOR Receptor. [Related pubchem assays (depositor defined):AID1777, AID1786, AID2133]; assay type: functional
[9] = target: T3, Kappa-type opioid receptor (Homo sapiens, UniProt P41145); assay type: functional
T3 sequence (P41145 whole entry): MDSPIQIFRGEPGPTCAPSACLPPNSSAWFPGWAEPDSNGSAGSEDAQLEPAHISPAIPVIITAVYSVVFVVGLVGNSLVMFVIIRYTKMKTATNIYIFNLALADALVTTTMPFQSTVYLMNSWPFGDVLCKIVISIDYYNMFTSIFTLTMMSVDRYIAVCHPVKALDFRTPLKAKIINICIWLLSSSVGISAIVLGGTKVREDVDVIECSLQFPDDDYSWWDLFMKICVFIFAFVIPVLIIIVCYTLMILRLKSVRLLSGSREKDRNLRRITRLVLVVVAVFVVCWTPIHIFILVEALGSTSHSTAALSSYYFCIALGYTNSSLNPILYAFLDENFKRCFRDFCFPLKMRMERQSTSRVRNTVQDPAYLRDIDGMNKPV

Beta-galactosidase = Beta-galactosidase (Escherichia coli, UniProt Q8VNN2); assay type: functional
Sequence of Beta-galactosidase (Q8VNN2 whole entry): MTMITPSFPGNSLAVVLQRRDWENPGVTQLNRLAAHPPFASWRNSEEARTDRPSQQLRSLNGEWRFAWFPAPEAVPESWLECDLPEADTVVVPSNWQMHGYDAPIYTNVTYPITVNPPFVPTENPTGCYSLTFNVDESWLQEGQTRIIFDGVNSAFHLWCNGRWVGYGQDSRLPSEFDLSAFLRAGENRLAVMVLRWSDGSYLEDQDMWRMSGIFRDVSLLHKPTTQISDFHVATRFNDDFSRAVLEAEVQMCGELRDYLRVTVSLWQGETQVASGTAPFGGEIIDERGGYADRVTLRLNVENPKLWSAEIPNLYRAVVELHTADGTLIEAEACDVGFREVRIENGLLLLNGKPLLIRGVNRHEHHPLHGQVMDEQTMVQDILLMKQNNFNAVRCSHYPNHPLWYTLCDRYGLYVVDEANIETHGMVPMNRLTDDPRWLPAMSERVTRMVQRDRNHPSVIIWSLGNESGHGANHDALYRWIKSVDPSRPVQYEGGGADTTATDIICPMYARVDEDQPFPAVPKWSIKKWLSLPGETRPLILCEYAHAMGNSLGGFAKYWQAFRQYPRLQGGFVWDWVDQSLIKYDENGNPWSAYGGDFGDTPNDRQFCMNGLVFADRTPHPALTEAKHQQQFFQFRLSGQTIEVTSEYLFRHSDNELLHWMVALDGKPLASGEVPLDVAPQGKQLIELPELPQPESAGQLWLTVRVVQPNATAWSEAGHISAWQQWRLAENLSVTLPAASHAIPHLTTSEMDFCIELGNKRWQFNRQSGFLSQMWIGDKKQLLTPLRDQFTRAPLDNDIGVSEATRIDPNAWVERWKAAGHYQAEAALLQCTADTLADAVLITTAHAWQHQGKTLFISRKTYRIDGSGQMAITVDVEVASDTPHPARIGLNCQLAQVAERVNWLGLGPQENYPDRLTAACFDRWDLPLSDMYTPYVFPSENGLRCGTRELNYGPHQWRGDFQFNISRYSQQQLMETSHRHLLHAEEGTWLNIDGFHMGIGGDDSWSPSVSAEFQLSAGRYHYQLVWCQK

[10] = target: T3, Kappa-type opioid receptor; assay type: functional; remark: listed apart in the source
[11] = target: T4, Short transient receptor potential channel 4 (Mus musculus, UniProt Q9QUQ5); assay: mouse TRPC4 channel inhibitors, dose response, cell-based, HEK293 TRPC4/mu-opioid, Fluo-4 calcium (AID 434942); assay type: functional;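 note: potency of inhibitors blocking the TRPC4 calcium response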
T4 sequence (Q9QUQ5 whole entry): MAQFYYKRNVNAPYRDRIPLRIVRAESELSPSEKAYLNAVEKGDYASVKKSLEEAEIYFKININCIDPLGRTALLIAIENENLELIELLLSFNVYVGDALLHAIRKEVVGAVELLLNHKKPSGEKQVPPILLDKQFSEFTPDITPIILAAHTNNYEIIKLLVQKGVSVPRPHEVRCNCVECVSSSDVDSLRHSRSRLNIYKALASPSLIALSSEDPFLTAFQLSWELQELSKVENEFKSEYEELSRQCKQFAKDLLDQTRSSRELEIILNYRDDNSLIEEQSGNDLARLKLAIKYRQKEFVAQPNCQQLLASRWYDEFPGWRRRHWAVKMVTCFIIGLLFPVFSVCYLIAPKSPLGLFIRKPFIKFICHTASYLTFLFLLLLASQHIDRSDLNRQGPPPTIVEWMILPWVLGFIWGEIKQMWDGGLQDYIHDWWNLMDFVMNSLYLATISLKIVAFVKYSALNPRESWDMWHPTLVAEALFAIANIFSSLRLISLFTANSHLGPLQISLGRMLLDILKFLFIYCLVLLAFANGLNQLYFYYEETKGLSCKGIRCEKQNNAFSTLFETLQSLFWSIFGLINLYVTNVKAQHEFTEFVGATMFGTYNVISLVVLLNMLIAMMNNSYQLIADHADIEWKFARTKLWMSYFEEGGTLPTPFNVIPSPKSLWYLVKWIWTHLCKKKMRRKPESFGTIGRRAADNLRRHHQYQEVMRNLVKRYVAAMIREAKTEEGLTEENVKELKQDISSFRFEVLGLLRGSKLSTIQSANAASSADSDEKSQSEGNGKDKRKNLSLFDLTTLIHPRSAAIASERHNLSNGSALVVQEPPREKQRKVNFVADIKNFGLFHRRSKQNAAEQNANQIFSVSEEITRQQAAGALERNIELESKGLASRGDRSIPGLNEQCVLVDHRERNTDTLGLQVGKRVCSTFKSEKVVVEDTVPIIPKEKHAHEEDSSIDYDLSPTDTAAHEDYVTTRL

[12] = target: Heat shock protein HSP 90-alpha (Homo sapiens, UniProt P07900); assay type: functional, organism-based
SUMO-activating enzyme [13] = target: T5, SUMO-activating enzyme (Homo sapiens, UniProt Q9UBT2); assay: SUMOylation inhibitor hit validation, confirmation, SUMOylation inhibitor project, biochemical, AlphaScreen (AID 2018); assay type: functional
T5 sequence (Q9UBE0 whole entry): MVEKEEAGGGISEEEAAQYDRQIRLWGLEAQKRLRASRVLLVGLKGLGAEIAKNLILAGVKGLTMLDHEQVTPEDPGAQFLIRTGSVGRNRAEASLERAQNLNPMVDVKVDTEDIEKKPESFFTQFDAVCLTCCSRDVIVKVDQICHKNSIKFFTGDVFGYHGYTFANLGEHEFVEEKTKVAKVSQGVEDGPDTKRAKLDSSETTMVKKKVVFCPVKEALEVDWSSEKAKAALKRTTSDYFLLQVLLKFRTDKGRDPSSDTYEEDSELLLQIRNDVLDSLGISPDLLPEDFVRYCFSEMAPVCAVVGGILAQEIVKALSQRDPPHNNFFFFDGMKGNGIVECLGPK
T5 sequence (Q9UBT2 whole entry): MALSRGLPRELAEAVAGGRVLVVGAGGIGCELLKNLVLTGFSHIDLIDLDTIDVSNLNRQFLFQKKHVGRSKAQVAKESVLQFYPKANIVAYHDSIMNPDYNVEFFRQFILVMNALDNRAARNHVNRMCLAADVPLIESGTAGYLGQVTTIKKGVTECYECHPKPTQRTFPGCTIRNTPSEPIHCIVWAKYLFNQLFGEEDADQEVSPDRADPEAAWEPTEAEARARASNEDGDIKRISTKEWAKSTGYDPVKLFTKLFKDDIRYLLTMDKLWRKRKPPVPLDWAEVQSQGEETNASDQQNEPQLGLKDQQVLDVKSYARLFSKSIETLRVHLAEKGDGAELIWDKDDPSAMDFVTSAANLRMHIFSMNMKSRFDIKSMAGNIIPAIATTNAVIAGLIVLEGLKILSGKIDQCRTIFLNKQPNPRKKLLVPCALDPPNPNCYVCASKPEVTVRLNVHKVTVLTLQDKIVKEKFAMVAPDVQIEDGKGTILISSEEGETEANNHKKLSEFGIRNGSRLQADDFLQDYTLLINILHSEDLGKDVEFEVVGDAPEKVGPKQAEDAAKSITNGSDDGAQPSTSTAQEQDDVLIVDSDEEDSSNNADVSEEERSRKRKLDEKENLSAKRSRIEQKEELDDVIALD

SUMO-activating enzyme [14] = target: T5, SUMO-activating enzyme; assay: inhibitors of in vitro SUMOylation cascade, primary screen, biochemical, HTRF, uHTS (AID 2006); assay type: protein-complex assay
[15] = target: T4, Short transient receptor potential channel 4; assay: mouse TRPC4 channel activators, dose response, cell-based, HEK293 TRPC4/mu-opioid, Fluo-4 calcium (AID 434937); assay type: functional
CAAX prenyl protease 2 = target: T6, CAAX prenyl protease 2 (Saccharomyces cerevisiae S288c, UniProt Q03530); assay type: biochemical
T6 sequence (Q03530 whole entry): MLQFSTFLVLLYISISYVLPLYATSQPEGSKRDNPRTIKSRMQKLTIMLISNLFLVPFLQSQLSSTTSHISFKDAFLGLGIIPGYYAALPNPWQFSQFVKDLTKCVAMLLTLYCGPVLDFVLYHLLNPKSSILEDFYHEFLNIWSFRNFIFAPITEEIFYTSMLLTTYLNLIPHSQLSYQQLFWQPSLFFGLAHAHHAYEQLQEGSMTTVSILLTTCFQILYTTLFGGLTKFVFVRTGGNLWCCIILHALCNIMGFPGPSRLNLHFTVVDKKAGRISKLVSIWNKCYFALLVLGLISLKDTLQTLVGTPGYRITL

[16] = growth suppression of PTEN-null colon cells, dose response, cell-based, HCT116 PTEN knockout (AID 1047); assay type: functional;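 note: HCT116 colon tumor cells with PTEN knocked out; cells exposed to compound for 60 hours before readout; potency for loss of cell viability measured by luminescence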
[17] = growth suppression of beta-catenin-knockout colon cells, dose response, cell-based, HCT116, human colon tumor (AID 1045); assay type: functional;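 note: HCT116 colon tumor cells with beta catenin knocked out; cells exposed to compound for 60 hours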
[18] = target: T7, Microphthalmia-associated transcription factor (Homo sapiens, UniProt O75030); assay: TRPM1 promoter luciferase signal decrease, dose response, MITF inhibitor project, cell-based, SK-MEL-5, cherry-picked, set 3 (AID 493073); assay type: functional
T7 sequence (O75030 whole entry): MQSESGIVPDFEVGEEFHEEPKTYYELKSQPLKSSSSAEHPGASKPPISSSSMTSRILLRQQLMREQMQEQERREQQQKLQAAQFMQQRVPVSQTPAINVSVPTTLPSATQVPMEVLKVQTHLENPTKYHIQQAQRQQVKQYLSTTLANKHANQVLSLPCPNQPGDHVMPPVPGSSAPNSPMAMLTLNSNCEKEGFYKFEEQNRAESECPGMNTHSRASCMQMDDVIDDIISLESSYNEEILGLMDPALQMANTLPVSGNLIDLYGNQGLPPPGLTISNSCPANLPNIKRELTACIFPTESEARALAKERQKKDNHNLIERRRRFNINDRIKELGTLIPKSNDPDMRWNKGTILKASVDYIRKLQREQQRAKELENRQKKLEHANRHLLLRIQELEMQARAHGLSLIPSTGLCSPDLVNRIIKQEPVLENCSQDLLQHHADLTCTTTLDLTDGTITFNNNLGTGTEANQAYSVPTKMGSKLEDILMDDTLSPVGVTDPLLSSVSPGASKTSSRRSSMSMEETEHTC

[19] = target: 26S proteasome non-ATPase regulatory subunit 14 (Homo sapiens, UniProt O00487); assay: inhibition of proteasome subunit RPN11 – biochemical, fluorescence polarization, uHTS hits, confirmation (AID 602368); assay type: functional
Sequence of 26S proteasome non-ATPase regulatory subunit 14 (O00487 whole entry): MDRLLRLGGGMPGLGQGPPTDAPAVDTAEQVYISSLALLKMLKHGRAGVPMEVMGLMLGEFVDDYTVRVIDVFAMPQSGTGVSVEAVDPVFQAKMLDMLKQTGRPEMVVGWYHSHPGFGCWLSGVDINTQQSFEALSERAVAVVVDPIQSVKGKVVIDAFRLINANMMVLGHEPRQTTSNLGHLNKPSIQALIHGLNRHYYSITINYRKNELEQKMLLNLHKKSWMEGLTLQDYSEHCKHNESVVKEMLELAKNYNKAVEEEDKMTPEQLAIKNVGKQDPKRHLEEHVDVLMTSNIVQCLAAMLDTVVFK

[20] = target: 72 kDa type IV collagenase (Homo sapiens, UniProt P08253); assay: Dose Response validation of uHTS RPN11 inhibitor hits using a MMP-2 Fluorescence assay.; assay type: functional
Sequence of 72 kDa type IV collagenase (P08253 whole entry): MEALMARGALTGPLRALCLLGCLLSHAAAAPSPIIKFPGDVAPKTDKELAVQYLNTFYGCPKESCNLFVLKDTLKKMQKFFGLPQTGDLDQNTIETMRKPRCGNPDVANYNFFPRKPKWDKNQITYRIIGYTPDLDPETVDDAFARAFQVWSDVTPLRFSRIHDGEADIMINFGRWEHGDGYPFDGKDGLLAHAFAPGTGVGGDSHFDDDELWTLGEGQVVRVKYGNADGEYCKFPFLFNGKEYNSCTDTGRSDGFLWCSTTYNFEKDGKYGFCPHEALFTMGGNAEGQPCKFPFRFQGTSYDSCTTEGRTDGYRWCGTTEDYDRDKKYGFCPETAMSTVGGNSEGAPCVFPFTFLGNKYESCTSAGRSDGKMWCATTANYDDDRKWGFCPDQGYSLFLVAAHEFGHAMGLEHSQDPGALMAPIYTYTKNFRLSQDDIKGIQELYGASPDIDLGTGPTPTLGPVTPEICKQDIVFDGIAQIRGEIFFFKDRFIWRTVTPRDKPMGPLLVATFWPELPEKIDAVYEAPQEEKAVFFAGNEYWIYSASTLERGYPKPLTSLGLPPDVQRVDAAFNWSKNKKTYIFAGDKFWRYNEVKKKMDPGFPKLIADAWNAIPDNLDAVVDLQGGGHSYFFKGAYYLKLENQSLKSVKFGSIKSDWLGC

Prothrombin = Prothrombin (Bos taurus, UniProt P00735); assay: thrombin inhibition, dose response, biochemical, fluorescence polarization, uHTS hits (AID 602369); assay type: functional
Cytochrome P450 3A4 = Cytochrome P450 3A4 (Homo sapiens, UniProt P08684);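 note: CYP3A4 tested as one member of a cytochrome P450 panel screen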
[21] = NIH-3T3 fibroblast cytotoxicity, dose response, cytotoxicity control, cell-based, fluorescence, Alamar Blue, secondary assay (AID 2327); assay type: functional;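 note: NIH-3T3 mouse fibroblasts cultured with fluconazole at 8 µg/mL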
[22] = C. albicans growth with fluconazole, confirmation, fluorescence, retest (AID 2467); assay type: functional, cell-based
INS1 = assay: beta cell apoptosis inhibitors, cytokine rescue, dose response, luminescence, retest (AID 449756); assay type: functional, cell-based; settings: Rattus norvegicus;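 note: cell death triggered by IL-1 beta plus TNF-alpha plus IFN-gamma mixture; protective hits raise ATP signal compared with cytokine alone wells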

Sequence of G-protein coupled receptor 55 (Q9Y2T6 whole entry): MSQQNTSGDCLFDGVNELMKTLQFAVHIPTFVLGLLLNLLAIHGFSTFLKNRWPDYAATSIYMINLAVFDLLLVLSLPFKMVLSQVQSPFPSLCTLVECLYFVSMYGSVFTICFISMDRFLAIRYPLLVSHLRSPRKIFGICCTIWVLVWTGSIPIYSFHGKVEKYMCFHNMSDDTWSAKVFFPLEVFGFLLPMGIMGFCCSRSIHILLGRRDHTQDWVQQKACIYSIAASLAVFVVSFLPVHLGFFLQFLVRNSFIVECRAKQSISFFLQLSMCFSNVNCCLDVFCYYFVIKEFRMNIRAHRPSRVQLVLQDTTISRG

CC(C)(C)n1nnnc1C(c1cccs1)N(Cc1ccccc1)Cc1cccnc1 (stereo not given)
IC50 [1]: 7.73 µM (active)

CC(C)(C)C(=O)COC(=O)c1cc(-c2ccc(Br)cc2)n[nH]1
IC50 [2]: > 100 µM (not active) | IC50 [3]: > 100 µM (inactive)

O=C(CC12CC3CC(CC(C3)C1)C2)NC(=S)NCc1ccco1
IC50 [1]: 0.969 µM (active) | EC50 [4]: 2.29 µM (active) | EC50 [5]: > 60 µM (inconclusive)

CC(C)c1nnc(NC(=O)c2sc3ccccc3c2Cl)s1
IC50 [6]: 67.9 µM (inactive) | AC50 (Cytochrome P450 2C19): 22.4 µM (inconclusive)

CCCCN(CCCNC(=O)C1CCN(S(=O)(=O)N2CCOCC2)CC1)c1ccccc1
IC50 [7]: > 32 µM (inactive) | EC50 (Mu-type opioid receptor): > 32 µM (inactive) | EC50 [8]: > 32 µM (inactive) | IC50 [9]: 25.3 µM (inactive) | EC50 (Beta-galactosidase): > 31.5 µM (inactive) | IC50 [10]: 4.56 µM

CC1CCN(CCOCCOc2ccccc2-c2ccccc2)CC1
EC50 [11]: 2.99 µM (active)

Cc1ccc(S(=O)(=O)N2CCN(c3nc(C)c4c(c3C#N)CC(C)(C)OC4)CC2)cc1
IC50 [1]: 10.9 µM (inactive)

CCC1=NN2C(=N)/C(=C\c3cccn3-c3ccc(C)cc3C)C(=O)N=C2S1
AC50 [12]: 8.16 µM (active)

Fc1ccccc1CNCCC(Cc1ccccc1)c1ccc2c(c1)OCO2 (stereo not given)
EC50 [11]: 13.3 µM (active)

Cn1c(CNc2ccc(Cl)cc2)nnc1SCc1ccccc1
AC50 [12]: 4.08 µM (active)

Cc1ccc(NC(=O)COc2ccc(/C=C3/NC(=O)NC3=O)cc2)cc1
IC50 (SUMO-activating enzyme [13]): 19.2 µM (active) | IC50 (SUMO-activating enzyme [14]): 17.1 µM (active)

COc1ccc(C(CNC(=O)c2cccc3cccnc23)N(C)C)cc1 (stereo not given)
EC50 [11]: 0.531 µM (active) | EC50 [15]: 1.19 µM (active)

COCCNc1c2c(nc3ccccc13)CCC2
EC50 [11]: 5.96 µM (active)

Cc1cc(OCC(=O)Nc2ccc(S(=O)(=O)N3CCN(C)CC3)cc2)cc(C)c1Cl
IC50 [7]: > 32 µM (inactive) | EC50 (Mu-type opioid receptor): > 32 µM (inactive) | EC50 [8]: > 32 µM (inactive) | IC50 [9]: 7.36 µM (active) | EC50 (Beta-galactosidase): > 31.5 µM (inactive) | IC50 [10]: > 32 µM

O=C1c2ccccc2C(=O)N1c1nnc[nH]1
IC50 [2]: > 100 µM (not active) | IC50 [3]: > 100 µM (inactive)

CCN1CCN(c2ncnc3sc(C)c(-c4ccccc4)c23)CC1
EC50 [15]: 5.96 µM (active)

CS(=O)(=O)c1ccc(C(=O)OCC(=O)N(CCc2ccccc2)Cc2ccccc2)cc1
AC50 (CAAX prenyl protease 2): 7.85 µM (active)

Cc1cc2ncn(/N=C/c3ccc([N+](=O)[O-])o3)c2cc1C
EC50 [4]: 0.195 µM (active) | EC50 [16]: 6.44 µM (active) | EC50 [5]: 15.5 µM (active) | EC50 [17]: 5.7 µM (active) | AC50 [18]: 21.9 µM (active) | AC50 (Cytochrome P450 2C19): 1.12 µM (inconclusive) | IC50 [19]: 73.6 µM (active) | IC50 [20]: > 100 µM (inactive) | IC50 (Prothrombin): 51.4 µM (active) | AC50 (Cytochrome P450 3A4): 15.8 µM (inconclusive)

O=C(N/N=C/c1sc(N2CCOCC2)nc1-c1ccccc1)c1cccc(S(=O)(=O)N2CCCC2)c1
EC50 [21]: 49.2 µM (active) | EC50 [22]: 3.31 µM (active) | AC50 (INS1): 2.44 µM (active) | IC50 [19]: 19.6 µM (active) | IC50 [20]: > 100 µM (inactive) | IC50 (Prothrombin): 24.5 µM (active)
